Test results from patent US9662377B2, “Therapeutic composition for treatment of glioblastoma” (REGENTS OF THE UNIVERSITY OF MINNESOTA, priority 2010, dated 2017).

Test system: PBMCs from CMV sera-positive donors
Assay: CMV assay (pp65-dependent IFNγ production)
Assay type: cell-based, human
Experimental: 5×10^5 HLA-A2^+ iDCs were pulsed with 100 μg of tumor lysates derived in 5% or 20% O2+/−10 μg of pp65 HLA-A2-restricted CMV antigen (NLVPMVATV) (SEQ ID NO: 15) and matured as described in the methods section. Following maturation, DCs were washed 3 times, and 5×10^5 PBMCs from CMV sera-positive donors were added to DCs. CMV sera-negative PBMCs were used as a negative control. Cells were incubated for 48 h, and supernatant was analyzed by cytometric bead array (BD Biosciences) for IFNγ. Cells were cultured for an additional 24 h, stained with anti-CD8, pp65 pentamer (ProImmune), and intracellularly stained for IFNγ production.
The inventors established an assay to determine if TLs altered DC-mediated CD8 T cell priming from a defined antigen not present in the TLs. To accomplish this, TLs were mixed with pp65 peptide, a specific marker antigen with well-defined CD8 T cell responses. […] Soluble IFNγ in the tissue culture supernatant was quantified as a measure of CD8 T cell activation. There was a background of […] of IFNγ detected in the supernatant when TLs were pulsed in the absence of pp65, possibly due to activation of T cells or natural killer (NK) cells irrespective of pp65 (FIG. 8B).

NLVPMVATV [pp65]
Response of sera-negative donor PBMCs (CMV sera-negative donor PBMCs): did not respond
IFNγ level above background (sera-positive donor PBMCs primed with pp65 alone (no TLs)): 2-4 fold
